Experimental data from patent US6624157B2, “Thiadioxobenzodiazepine inhibitors of farnesyl protein transferase” (Bristol-Myers Squibb Company, priority 1996, dated 2003).
Structures can show the parent of a compound that is named as a salt.

In the case of `O=S1(=O)NC(Cc2ccccc2)CN(Cc2cnc[nH]2)c2ccc(Br)cc21` (stereo not shown) (as salt: hydrochloride) [Example 9, N-[2,3,4,5-Tetrahydro-8-bromo-5-(1H-imidazol-4-ylmethyl)-3-(phenylmethyl)-1,2,5-benzothiadiazepine, 1,1-dioxide, monohydrochloride], the melting point is reported as 180 °C.

In the case of `CN1C(Cc2ccccc2)CN(Cc2cnc[nH]2)c2ccc(Br)cc2S1(=O)=O` (stereo not shown) (as salt: hydrochloride) [Example 10, 2,3,4,5-Tetrahydro-8-bromo-2-methyl-5-(1H-imidazol-4-ylmethyl)-3-(phenylmethyl)-1,2,5-benzothiadiazepine, 1,1-dioxide, monohydrochloride], the melting point is reported as 140 °C.

Work on `O=S1(=O)c2ccccc2N(Cc2cnc[nH]2)CCN1Cc1cccc2ccccc12` (as salt: hydrochloride) [Example 1, 2,3,4,5-Tetrahydro-5-(1H-imidazol-4-ylmethyl)-2-(1-naphthalenylmethyl)-1,2,5-benzothiadiazepine, 1,1-dioxide, monohydrochloride] yielded a melting point of 128 °C.

Work on `O=S1(=O)c2ccccc2N(Cc2cnc[nH]2)CCN1CCc1ccccc1` (as salt: hydrochloride) [Example 2, 2,3,4,5-Tetrahydro-5-(1H-imidazol-4-ylmethyl)-2-(2-phenylethyl)-1,2,5-benzothiadiazepine, 1,1-dioxide, monohydrochloride] yielded a melting point of 95 °C.
